Laboratory results taken from patent publication US20160333019A1, “SYNTHESIS AND FORMULATIONS OF PORPHYRIN COMPOUNDS” (Aeolus Sciences, Inc., priority 2013, published 2016).
Blank lines part the entries; values can stand above or below the compound they belong to.

Legend:
Format in all cases: physicochemical
[1] = Solid form stability: vapor diffusion, drying, grinding, competitive slurry, by XRPD
Procedure: Vapor Diffusion into Solid. Form I was used along with 21 solvent system to evaluate the effect of vapor diffusion on polymorphic behavior. About 2 mL solvent was added to a 20 mL scintillation vial. Furthermore, about 30 mg of solid was added to an open 2 mL HPLC vial and the whole vial was placed inside the bigger vial which contained the solvent. […] Both methanol and ethanol ended up with a mixture of Form I and Form VII. Form I kept its integrity at relative humidity of up to 85% which was generated using saturated potassium chloride.
Drying and Thermal Treatment Studies. A sample was produced using 3 eq. of Mn(III) acetate. The slurry was filtered at ambient without any precautions. The relative humidity of the lab was at 54% at the time of filtration. The wet cake was washed with acetonitrile followed by XRPD analysis which conformed to Form I. The wet cake was dried on a XRPD plate with dome in the over at 40° C., under vacuum for overnight. Then, the sample holder was capped while in the oven followed by XRPD analysis. The resulting solid was a Form III. Then, the cap of the domed holder was opened and allowed the dry solid to be exposed to ambient at RH of 54%.
Wet and Dry Grinding Studies. Form I was ground using mortar and pestle under dry and wet conditions. The solvents in wet grinding were acetonitrile, acetonitrile:water (98:2) and ethyl acetate. […] It should be noted that the grinding was performed under ambient conditions where relative humidity was around 50-60%.
Competitive Slurry Experiments. Mixture of six crystal forms (I, II, III, V, VI and VII) were slurried in three different solvents (acetonitrile acetonitrile:water (98:2) and ethyl acetate), at 25±2° C. for 5 days followed by filtration under nitrogen inert condition. About 20 mg of each polymorph added to the vials. The total weight was […] in each vial and 0.75 mL solvent was added. After filtration, the cake was washed with the same solvent as the one used in the slurry. The cake was placed on a sample holder and sealed using the X-ray transparent dome and analyzed using XRPD. The cap was then removed and solid was dried at 45° C. and under vacuum for half a day. The dry sample was then sealed under nitrogen inert environment and analyzed by XRPD. The next step was to expose the dry sample to about 50% relative humidity for 30 minutes followed by XRPD analysis. In the case of acetonitrile, the wet cake was a new pattern designated as Form IV. In acetonitrile:water (98:2), the resulting solid was low crystalline Form I. It seemed that 2 vol % water was not enough to result in a crystalline hydrate. In the case of ethyl acetate, the solid was also low crystalline Form I plus a few extra peaks. The water in starting Form I could have been enough to result in a low crystalline Form I with some extra peaks of the starting forms in hydrophobic ethyl acetate. This was not observed in neat acetonitrile due to affinity of this solvent for water. […] Theoretically, the same water quantity in ethyl acetate results in higher water activity than in acetonitrile.
Form II is the wet cake out of reaction mixture unexposed to moisture. Section 3.3.2.3 (reactive crystallization) describes the procedure of making Form II. FIG. 15 illustrates the XRPD of Form II. For XRPD analysis, a silicon plate with dome was used to prevent exposure to ambient. Form III is the result of drying of any of the solid forms. […] Due to instability, some peaks might be shifted if the same sample is repeated multiple times. FIG. 16 illustrates the XRPD of Form III. For XRPD analysis, a silicon plate with dome was used to prevent exposure to ambient. Form IV is the wet cake from slurrying all the solid forms in acetonitrile for at least 5 days and at room temperature. This form is unstable and upon exposure to moisture, it converts to Form I. FIG. 17 illustrates the XRPD of Form IV. For XRPD analysis, a silicon plate with dome was used to prevent exposure to ambient. […]

[2] = Humidity stability of Form I, dynamic vapor sorption and equilibrium water uptake; conditions: equilibrium
Procedure: Dynamic Vapor Sorption (DVS). Samples were analyzed using an […]™ DVS-2 gravimetric water sorption analyzer. The relative humidity was adjusted between 2-95% and the weight of sample was continuously monitored and recorded.
Humidity Stability of Form I. Form I was exposed to a typical relative humidity range that most labs will experience e.g. 15-75% at 25° C. Initially the chamber relative humidity was adjusted at 50%. Then the RH was cycled between 15 to 75% and weight was monitored. FIG. 18 illustrates the changes in weight as a function of relative humidity. If the solid is equilibrated at 50% relative humidity the variation in weight would about ±2 wt % between 15-75% RH. Furthermore, an equilibrium study was performed at various relative humidity environments for extended time. Table 5.6 show the equilibrium % water uptake at various humidity levels.

[3] = Air oxidation of the Mn(II) form
Procedure: Without being bound to any particular theory, the chemistry occurring when the pH of the 75 mg/mL solution rises from 4 to 9 over the 16-24 hour period may result from the presence of different oxidation states of Mn(II) and (III).
One proton is consumed per one molecule of Mn (II) porphyrin complex in the oxidation process. In the absence of acid (for example in WFI water) the oxidation process is expected to be slower and generates hydroxyl-ions: […]

stability of crystal form upon exposure to moisture [1]: unstable
Compound: [5,10,15,20-tetrakis(1,3-diethylimidazolium-2-yl)porphyrinato]manganese(III) chloride hydrate complex [Form IV]

Compound: CCn1cc[n+](CC)c1-c1c2nc(c(-c3n(CC)cc[n+]3CC)c3ccc([n-]3)c(-c3n(CC)cc[n+]3CC)c3nc(c(-c4n(CC)cc[n+]4CC)c4ccc1[n-]4)C=C3)C=C2.O.[Cl-].[Cl-].[Cl-].[Cl-].[Cl-].[Mn+3] [Form III, [5,10,15,20-tetrakis(1,3-diethylimidazolium-2-yl)porphyrinato]manganese(III) chloride hydrate complex]
% water uptake ([2]; relative humidity 2 %): 0.00%
stability of crystal form upon exposure to moisture [1]: unstable and rapidly converts to Form I
time to full conversion to Form I ([1]; dry solid exposed to ambient at RH of 54%): less than half an hour

Compound: CCn1cc[n+](CC)c1-c1c2nc(c(-c3n(CC)cc[n+]3CC)c3ccc([n-]3)c(-c3n(CC)cc[n+]3CC)c3nc(c(-c4n(CC)cc[n+]4CC)c4ccc1[n-]4)C=C3)C=C2.[Mn+2] [Mn(II) form]
half-life of oxidation by air ([3]; aqueous solution containing 0.1% TFA): 5 to 7 min
stability in air ([3]; solid state): relatively stable

Compound: CCn1cc[n+](CC)c1-c1c2nc(c(-c3n(CC)cc[n+]3CC)c3ccc([n-]3)c(-c3n(CC)cc[n+]3CC)c3nc(c(-c4n(CC)cc[n+]4CC)c4ccc1[n-]4)C=C3)C=C2.O.[Cl-].[Cl-].[Cl-].[Cl-].[Cl-].[Mn+3] [Form I, [5,10,15,20-tetrakis(1,3-diethylimidazolium-2-yl)porphyrinato]manganese(III) chloride hydrate complex]
% water uptake ([2]; relative humidity 20 %): 13.50%
% water uptake ([2]; relative humidity 40 %): 15.01%
% water uptake ([2]; relative humidity 75 %): 16.83%
% water uptake ([2]; relative humidity 80 %): 19.06%
stability of crystal form ([1]; ambient conditions and relative humidity as low as 15%): stable
relative stability among crystal forms ([1]; competitive slurry of forms I, II, III, V, VI and VII, exposure to moisture): most stable crystal form
stability under grinding conditions ([1]; dry and wet grinding, mortar and pestle, ambient, relative humidity 50-60%): pretty stable
relative humidity up to which the form kept its integrity ([1]; vapor diffusion, 6 days exposure, saturated potassium chloride): up to 85%
